# Assay results: patent US20220332839A1, “USE OF PRG4 TO TREAT CANCER” (Lubris LLC, priority 2019, published 2022)
# Columns and labels:
# Hep3B = assay: 72-hour proliferation assay, Hep3B; assay type: cell-based, human; conditions: only at the highest rhPRG4 concentrations; drug 2.5 μM
# Method: (§1) Proliferation assay: In 100 μl complete medium, 3,000 cells were seeded in wells of a 96-well plate and left overnight to allow complete attachment. The next day (at time t=0 hours), the medium was removed and replaced with 100 μl of fresh medium in the presence/absence of Sorafenib (2.5 μM), Regorafenib (2.5 μM), rhPRG4 (12.5 to 100 μg/ml). Dimethyl sulfoxide (DMSO) and PBS+0.01% Tween-20 were used as vehicles of Sorafenib/Regorafenib, and rhPRG4, respectively. Cells in triplicate wells for each cell line were fixed at t=0 hours with 4% paraformaldehyde (PFA, pH 7.6, 10 min incubation), then stained with crystal violet (CV) and thoroughly washed to remove the excess staining. After 72 hours, the cells were fixed by adding 100 μl of 4% PFA directly to the medium (2% final PFA concentration, 20 min incubation), and processed for CV staining as previously described. Then, 100 or 200 μl of 1% sodium dodecyl-sulphate were added to the wells and the plates were left under shaking until complete CV release from stained cells. Optical density was at 595 nm wavelength measured using a plate reader.
# [1] = tested on: HLE, HLF and PLC/DC/19 cells; assay: 72-hour proliferation assay, CD44 positive HCC cells; assay type: cell-based, human; conditions: drug 2.5 μM, rhPRG4 12.5 to 100 μg/ml
# Method: as §1
# Characterization of the primary HCC cells line PLC/DC/19: The primary HCC cell line, PLC/DC/19, was isolated from freshly collected surgically resected HCC specimen following the same isolation procedure to isolate CAFs. […]
# HLE and HLF cells = assay: HCC cell adhesion assay on coated wells; assay type: cell-based, human; conditions: CD44-shRNA vs control-shRNA; 30 minutes
# From the text: Stable CD44 silencing: HLE and HLF cell lines were transduced with lentiviral particles carrying control non-targeting (V), or specific CD44-targeting shRNA sequences (A to D), and selected with puromycin dihydrochloride (Thermo Fisher Scientific) to obtain stable CD44 silencing, according to manufacturer instructions (OriGene Technologies, Inc., Rockville, Md. 20850, USA). Control-shRNA sequence (V) and CD44-shRNA sequence B were used in all the experiments involving CD44 downregulation.
# Adhesion assay: Diluted in 100 μl of serum free DMEM medium (+0.5% BSA), 50,000 cells, were seeded onto uncoated, rhPRG4, or fibronectin (FN)-coated wells of a 96-well plate, and then incubated at 37° C., 5% CO2 for 30 minutes. An equal volume of 4% PFA (pH 7.2 in PBS) was added and the plates were immediately flicked for a few seconds to allow mixing. Thirty minutes later, the medium was removed and the adherent cells were stained with crystal violet for 10 min. After abundant washing with tap water and distilled water the stained cells were allowed to dry out, and then they were solubilized with 100 μl of 1% sodium dodecyl sulphate in water. Absorbance was read at 595 nm and proportionally related to the number of adhered cells.
# [2] = tested on: HCC cells (HLE, HLF, PLC/DC/19, Hep3B, PLC/PRF/5); assay: 72-hour proliferation assay, all HCC cells; assay type: cell-based, human
# Method: as §1
# colon cancer = assay: Treatment of a human with colon cancer, systemic administration; assay type: in vivo; conditions: 500 mg rhPRG4 via central venous catheter, once weekly for four weeks
# Method: An 80 kg human diagnosed with colon cancer is administered recombinant human PRG4 (rhPRG4) by systemic administration via a central venous catheter. A total amount of 500 mg of rhPRG4 in 250 mL of physiological saline at a concentration of 2.0 mg/mL of lubricin is administered to create a blood concentration of approximately 100 μg/mL. The dose is administered once weekly for four weeks.
substance,measurement,setting,value
rhPRG4: full-length recombinant human PRG4 (lubricin) glycoprotein produced by CHO-M cells; residues 25-1404 of SEQ ID NO:1,rhPRG4-drug synergistic effect,Hep3B,"present during Hep3B proliferation, even if lower"
same,effectiveness of Sorafenib or Regorafenib when coupled with rhPRG4,[1],strongly and synergistically improved their effectiveness
same,cell adhesion to lubricin-coated wells,HLE and HLF cells,impaired upon silencing of CD44 expression
same,"cell proliferation, rhPRG4 alone",[2],did not markedly impair the cell proliferation
same,tumor size by CT scan after four weeks,colon cancer,decreased in size
